Measured values: patent US20070082856A1, “Combination therapy comprising the use of et-743 and doxorubicin for treating cancer” (Pharma Mar, S.A.U., priority 2003, published 2007)

Experiments:
[1] = Phase I clinical trial (Example 1): pharmacokinetics of both drugs for the 2 sequences; format: in vivo, human; settings: for influence of order of administration on pharmacokinetics: ET-743 and Doxo, sequence A versus B; for comparison of the plasma disposition in patients receiving both sequences: ET-743 and doxorubicin, sequences A and B, cycle 1 and cycle 2
Experimental: Pharmacokinetic [PK] of both drugs was determined for the 2 sequences at cycle 1 and cycle 2, when patients received the drugs in the reverse order of administration. Alternating sequence was discontinued at observation of dose limiting toxicity [DLT]: observation of grade 4 hematological toxicity for more than 3 days at the entry level. Both drugs were administered on day 1, with a 1 h interval between the 2 drugs (ET-743, 3-hr infusion i.v. and Doxo, 1-hr infusion i.v push with steroids & 5-HT3 antagonists as antiemetic prophylaxis). Oral steroids premedication for ET-743 was given 24 h before and for 48 h following the day of treatment. Doxo was administered at the fixed dose of 60 mg/m^2, while ET-743 was started at 600 μg/m^2 and escalated thereafter in subsequent cohorts of at least 3 new cases. Patients continued treatment until progressive disease (PD) or intolerance, and were restaged every 2 cycles for activity.

[2] = Phase I clinical trial (Example 2): safety profile and DLT of ET-743 days 1 and 8 with doxorubicin day 1; settings: fixed Doxo dose day 1 with ET-743 700 μg/m^2 days 1 and 8, every 21 days
[3] = system: untreated metastatic soft tissue sarcomas (STS) and advanced pre-treated anthracyline-naïve breast cancer (ABC); assay: Phase I clinical trial (Example 1): antitumor activity of ET-743 in combination with doxorubicin; format: in vivo, human
Experimental: In this multicenter dose and LTS finding trial, patients were assigned consecutively to start either with sequence A (ET-743 before Doxo) or with the reverse sequence (B) at the following dose levels every 21 days: […] Oral steroids premedication for ET-743 was given 24 h before and for 48 h following the day of treatment. […] Patients continued treatment until progressive disease (PD) or intolerance, and were […] 2 cycles for activity. In this study, 22 patients were enrolled and evaluable. The patients were required to have normal liver, renal, cardiac and haematologic functions and good performance status for entry into the study. Enrolment was restricted to breast cancer and soft tissue sarcoma.

[4] = system: sarcoma and breast and ovarian carcinoma; settings: ET-743 alone; phase I intravenous infusion schedules; cited from earlier work
[5] = system: human tumor xenografts, including melanoma and ovarian and breast carcinoma; settings: ET-743 alone; human tumor xenografts grown in athymic mice; cited from earlier work
[6] = system: transplanted human sarcomas; settings: ET-743 and doxorubicin; mice with transplanted human sarcomas; Meco et al. 2003; cited from earlier work
[7] = system: sarcoma cell line; settings: ET-743 and doxorubicin, Meco et al. 2003; cited from earlier work
[8] = human, in vivo
[9] = ET-743 with doxorubicin; tests on animal models; WO 0236135; cited from earlier work

Compound	influence of order of administration on pharmacokinetics [1]	comparison of the plasma disposition in patients receiving both sequences [1]	MTD, Doxo part [2]	antitumor activity ([3]; 600-700 μg/m^2 of ET-743 in combination with Doxo)	patients with confirmed partial response (PR) ([3]; all ET-743 dose levels + Doxo 60 mg/m^2, 22 evaluable patients)	antitumor activity of the combination ([3]; combination of ET-743 and doxorubicin, phase I clinical trials)	responses in patients [4]	antineoplastic activity [5]	effect of the combination [6]	effect of the combination [7]	tolerability of the combination [8]	effect of the combination [9]
COc1cccc2c1C(=O)c1c(O)c3c(c(O)c1C2=O)C[C@@](O)(C(=O)CO)C[C@@H]3O[C@H]1C[C@H](N)[C@H](O)[C@H](C)O1 [doxorubicin]	did not influence the pharmacokinetics	did not reveal any significant pharmacokinetic interaction	50 mg/m^2	–	–	–	–	–	–	–	–	–
COc1cc2c(cc1O)CCN[C@]21CS[C@@H]2c3c(OC(C)=O)c(C)c4c(c3[C@H](COC1=O)N1[C@@H]2[C@H]2c3c(cc(C)c(OC)c3O)C[C@@H]([C@@H]1O)N2C)OCO4 [ET-743, ecteinascidin 743]	did not influence the pharmacokinetics	did not reveal any significant pharmacokinetic interaction	–	Antitumor activity was observed	5 pts	evidence of antitumor activity	Promising responses	potent antineoplastic activity	additive effect	additive effect	tolerable and feasible	synergistic effect
